These results are taken from patent US20230382858A1 (Beckley Psytech Limited, priority 2020, published 2023).

Some results are limits rather than exact numbers.

The target of one series is hERG (Homo sapiens, UniProt Q12809). Description: in vitro. From the text: This assay is employed as a screen to assess potential risks for QT interval prolongation.
A further series concerns Sprague-Dawley rats. Description: Maximum tolerated dose followed by 7-day repeat-dose toxicology in rats (Study 700040). In kind it is in vivo. The note with it: rat. The method, then: The study consisted of 2 parts. […] The doses used in part 1 were 15, 30, 50, 65, and 75 mg/kg. Each subsequent dose was administered following at least 24 hours from the commencement of the previous dose. There were 2 males and 2 females in each dose group.
During Phase I, assessments of mortality, clinical signs and body weights were performed. […] The necropsy consisted of an external examination, including reference to all clinically-recorded lesions, as well as a detailed internal examination.
During Phase 2, assessments of mortality, clinical signs and body weights were performed. Following dosing, all animals were euthanized and subjected to a necropsy examination on Day 8. The necropsy consisted of an external examination, including reference to all clinically-recorded lesions, as well as a detailed internal examination. Study plan specific tissues/organs were collected and retained, then trimmed and preserved promptly once the animal was euthanized but these were not further examined microscopically.

The subject of series [1] is Chinese hamster ovary (CHO)-K1 cells. Description: In vitro micronucleus test (flow cytometry). In kind it is cell-based. From the text:
The treatment with the vehicle/negative and positive controls was concurrently performed.

In series [2] the test system is Salmonella typhimurium tester strains TA98, TA100, TA1535, and TA1537. Description: Bacterial Reverse Mutation Test (Ames test), S. typhimurium. The conditions noted are these: for cytotoxicity: 5000 μg/plate. Background: In the Ames test, an excess of revertant colonies over the control signals mutagenicity.
Series [3] is described as follows: Dynamic Vapour Sorption (DVS). It is filed as physicochemical. The method, then: Sorption isotherms were obtained using a Hiden Isochema moisture sorption analyser (IGAsorp Systems Firmware V20.19.005 COM3) and operated by Isochema Hlsorp 2019 V4.02.0102. The sample was maintained at a constant temperature (25° C.) by the instrument controls. The humidity was controlled by mixing streams of dry and wet nitrogen, with a total flow of 250 ml.min-1. The weight change of the sample was monitored as a function of humidity by a microbalance (accuracy +/− 0.001 mg).
A defined amount of sample was placed in a tared mesh stainless steel basket under ambient conditions. A typical experimental run consisted of three cycles (desorption, sorption, desorption, sorption, desorption and sorption) at a constant temperature (25° C.) and 10% RH intervals over a 0-90% RH range (60 minutes for each humidity level).
This is to obtain in-depth profiling of the material towards humidity at these elevated levels.

Where [4] appears, read: intranasal 75 mg/kg for 7 consecutive days.

Sequence of hERG (Q12809 whole entry): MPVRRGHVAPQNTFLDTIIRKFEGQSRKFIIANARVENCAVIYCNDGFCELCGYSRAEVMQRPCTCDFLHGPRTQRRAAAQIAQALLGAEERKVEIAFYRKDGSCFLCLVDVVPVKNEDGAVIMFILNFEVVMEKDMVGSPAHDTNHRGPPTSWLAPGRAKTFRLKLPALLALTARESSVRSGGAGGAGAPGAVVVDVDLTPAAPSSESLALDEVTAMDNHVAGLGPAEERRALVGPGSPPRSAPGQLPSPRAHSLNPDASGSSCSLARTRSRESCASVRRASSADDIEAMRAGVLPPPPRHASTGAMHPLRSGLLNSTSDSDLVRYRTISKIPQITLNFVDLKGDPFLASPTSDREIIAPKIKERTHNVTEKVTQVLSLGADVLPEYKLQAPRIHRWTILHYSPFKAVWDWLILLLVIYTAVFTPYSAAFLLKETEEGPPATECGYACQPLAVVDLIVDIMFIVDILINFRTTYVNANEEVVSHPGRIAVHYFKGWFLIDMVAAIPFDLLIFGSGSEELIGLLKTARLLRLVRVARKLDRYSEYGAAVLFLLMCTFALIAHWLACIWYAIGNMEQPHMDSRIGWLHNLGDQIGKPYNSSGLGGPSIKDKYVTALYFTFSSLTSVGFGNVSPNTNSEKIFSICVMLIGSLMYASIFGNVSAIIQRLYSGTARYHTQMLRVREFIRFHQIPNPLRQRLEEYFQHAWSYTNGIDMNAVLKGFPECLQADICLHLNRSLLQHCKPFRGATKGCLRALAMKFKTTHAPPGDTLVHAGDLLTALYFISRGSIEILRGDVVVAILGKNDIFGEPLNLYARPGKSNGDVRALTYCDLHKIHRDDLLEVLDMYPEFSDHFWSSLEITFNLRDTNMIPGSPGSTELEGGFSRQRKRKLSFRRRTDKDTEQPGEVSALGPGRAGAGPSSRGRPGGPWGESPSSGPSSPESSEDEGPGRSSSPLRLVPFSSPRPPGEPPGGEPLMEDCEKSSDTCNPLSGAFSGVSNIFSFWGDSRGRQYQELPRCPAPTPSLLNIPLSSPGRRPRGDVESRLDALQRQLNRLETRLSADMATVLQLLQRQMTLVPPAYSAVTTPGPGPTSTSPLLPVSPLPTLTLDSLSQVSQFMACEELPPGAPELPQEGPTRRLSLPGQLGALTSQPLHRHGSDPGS

Molecule `COc1ccc2[nH]cc(CCN(C)C)c2c1` [5MeODMT, 5-methoxy-N,N-dimethyltryptamine] yielded an inhibition at 30 µM against hERG of 77.8 ± 7.4%. Besides, in the series on Sprague-Dawley rats (setting [4]), the body weight gain result was “slightly suppressed for both sexes”, the “macroscopic observation: dark/pale area of the lungs” value is reported as 2/10, the mortality result is “no mortalities” and the tolerability entry is “tolerated”. Besides, in the series with Sprague-Dawley rats (single intranasal 15-75 mg/kg), the clinical signs entry is “incoordination, shallow or increased respiration, sneezing, salivation, decreased activity, piloerection, white pasty material around penis (for males), ptosis, laying on the cage floor, and sensitive to touch and shaking”; the “mortality and gross pathology” value was “no mortality and gross pathology findings at any dose”; the “time to resolution of most clinical signs post dose” value was not above 1 h. For the same molecule, in the series with Sprague-Dawley rats (single intranasal, dose levels up to 75 mg/kg), the tolerability entry is “tolerated”. In the series with Sprague-Dawley rats (single intranasal, females at 75 mg/kg), the body weight gain entry was “slightly suppressed”. Besides, the “chromosome-damaging potential (conclusion)” value in series [1] (CHO-K1 cells) is reported as “no chromosome-damaging potential”. For the same molecule, the cytotoxicity or precipitation entry in series [1] (up to 300 μg/mL, all treatment periods) was “No cytotoxicity or precipitation”. Besides, the cytotoxicity result in series [2] (absence of S9 mix) is “higher levels of cytotoxicity”. The cytotoxicity entry in series [2] (presence of S9 mix) is on record as “remained slight”. Besides, in series [2] (TA1537 and TA98, absence of S9 mix, 15-2000 μg per plate), the “revertant colonies in repeated test” value is given as “no increases in the revertant colonies number per plate”. Moreover, the “mutagenic potential (conclusion)” value in series [2] (all bacteria strains tested, absence or presence of S9) is reported as “no mutagenic potential”.
For `COc1ccc2[nH]cc(CCN(C)C)c2c1.Cl` [5MeODMT Hydrochloride, lot 20/20/126-FP, 5MeODMT Hydrochloride], the “state of material upon completion of the DVS cycle” value in series [3] (0-90% RH cycles) is listed as “completed deliquesced”. Besides, the moisture uptake result in series [3] (25° C., 0-70% RH) was “less than 0.3 % w/w”; in series [3] (25° C., first sorption cycle, 70-80% RH), “Approximately 23 w/w”. Besides, the “mass above the minimum recorded at 0% RH after subsequent cycles (retention of moisture)” value in series [3] (25° C., subsequent sorption and desorption cycles) is 6-9 % w/w. Moreover, the further moisture uptake in series [3] (25° C., up to and when held at 90% RH) is listed as 20 % w/w.
In the case of `COc1ccc2[nH]cc(CCN(C)C)c2c1.Cl` [5MeODMT Hydrochloride, lot 20/45/006-FP, 5MeODMT Hydrochloride], in series [3] (70-75% RH), the moisture increase entry was “ca. 0.46 % w/w”. Further, the figures for the further moisture uptake result in series [3] (75-80% RH) and in series [3] (80-85%) were “ca. 7%” and “ca. 40%”, respectively. Further, the stability towards humidity entry in series [3] (DVS) is given as “robustness between 0-75% RH”. Also, the “state of solids post DVS analysis” value in series [3] (modified DVS up to 85% RH, likely occurred above 80% RH) is on record as “Complete deliquescence”.

For orientation: inhibition means the share of the control response that was lost under treatment. A higher inhibition goes with strong suppression.
